Reference: paper PMC2993773 (Journal of natural products, 2010)

Tests used:
[1] = system: KB-VIN multidrug-resistant human cancer cell line; test: In vitro cytotoxicity; format: cell-based
[2] = system: P-388 murine leukemia cells; conditions: in vitro; cited from earlier work
[3] = system: KB nasopharyngeal human cancer cell line; test: In vitro cytotoxicity; format: cell-based; conditions: KB cells (value in parentheses)

## C=C(CC[C@@H](C)[C@H]1CC[C@@]2(O)C3=C(C(=O)C[C@]12C)[C@@]1(C)CCC(=O)[C@@H](C)C1C[C@@H]3O)C(C)C(=O)O (stereo partly drawn) [Compound 4, 7β,14α-dihydroxy-3,11-dioxo-4α-methylergosta-8,24(28)-dien-26-oic acid]
[1]; not told
  substrate of P-glycoprotein (P-gp): not substrates of P-glycoprotein

## C=C(CC[C@@H](C)[C@H]1CC[C@H]2C3=C(C(=O)C[C@]12C)[C@@]1(C)CCC(=O)[C@@H](C)[C@@H]1C[C@@H]3O)C(C)C(=O)OC (stereo partly drawn) [Compound 6, methyl 7β-hydroxy-3,11-dioxo-4α-methylergosta-8,24(28)-dien-26-oate]
[1]; inferred from lack of cross-resistance shown by KB-VIN
  substrate of P-glycoprotein (P-gp): not substrates of P-glycoprotein

## C=C(CC[C@@H](C)[C@H]1CC[C@H]2C3=C(C(=O)C[C@]12C)[C@@]1(C)CCC(=O)[C@@H](C)[C@@H]1CC3=O)C(C)C(=O)O (stereo partly shown) [Compound 11, zhankuic acid A]
[2]
  cytotoxicity against P-388 murine leukemia cells: significant cytotoxicity

## C=C(CC[C@@H](C)[C@H]1CC[C@H]2C3=C(C(=O)[C@H](O)[C@]12C)[C@@]1(C)CC[C@@H](O)[C@@H](C)[C@@H]1CC3=O)C(C)C(=O)O (stereo partly shown) [Compound 13, zhankuic acid C]
[2]
  cytotoxicity against P-388 murine leukemia cells: significant cytotoxicity

## COc1cc([C@@H]2c3cc4c(cc3[C@@H](O[C@@H]3O[C@@H]5CO[C@@H](C)O[C@H]5[C@H](O)[C@H]3O)[C@H]3COC(=O)[C@H]23)OCO4)cc(OC)c1O [etoposide, reference compound]
[1]; KB-VIN versus KB
  activity in KB-VIN relative to KB (cross-resistance): at least eight-fold less active

## eburicol [Compound 19]
[3]
  % inhibition at 20 μM, KB: 34%
[1]; 20 μM, KB-VIN cells (value in parentheses)
  % inhibition at 20 μM, KB-VIN: 18%
